Reference: patent US20220273659A1, “HETEROCYCLIC COMPOUNDS AS KINASE INHIBITORS” (NUVATION BIO INC., priority 2019, published 2022)
pIC50: −log10 of the molar value.

Columns and labels:
PI3Kδ kinase = target: T1, PI3Kδ kinase (Homo sapiens, UniProt O00329); assay: PI3Kδ kinase assay (ADP-Glo, Reaction Biology); format: biochemical
T1 construct: purchased Reaction Biology Corporation (assay service)
Method: IC50 values of compounds against the PI3Kδ kinase were determined by an assay performed by Reaction Biology Corporation (Malvern, Pa.). Briefly, this assay was conducted in buffer (Tris-HCl 40 mM (pH7.5), Orthovanadate 3 mM, MgCl2 20 mM, DTT 2 mM, CHAPS 0.05%, DMSO 1%). PI3Kδ kinase was added to the reaction solution and mixed gently. The test compounds in 100% DMSO (at specific solutions) were mixed with the kinase reaction mixture to achieve the final compounds at pre-defined concentrations (e.g., range −0.5 nM to 100 μM) by Acoustic technology (Echo550; nanoliter range). After incubating for 10 min at room temp, ATP was added into the reaction mixture to initiate the reaction followed by a 30-min incubation at 30° C. After quenching the reaction with ADP-Glo reagent, the plates were incubated for 40 min. The Detection Mixture was added, and the plate was incubated for an additional 30 min. At the end of incubation, luminescence was measured. For data analysis, the luminescence was converted into μM ADP production based on ADP standard curves. The nonlinear regression to obtain the standard curve and IC50 values was performed using GraphPad Prism (GraphPad Software, Inc., San Diego, Calif.).

FMS kinase = target: T2, FMS kinase (Homo sapiens, UniProt P07333); assay: LanthaScreen Eu Kinase Binding Assay (ATP, fluorescent-PolyGT substrate); format: biochemical
T2 construct: purchased Invitrogen (Life Technologies)
T2 sequence (P07333 20-972): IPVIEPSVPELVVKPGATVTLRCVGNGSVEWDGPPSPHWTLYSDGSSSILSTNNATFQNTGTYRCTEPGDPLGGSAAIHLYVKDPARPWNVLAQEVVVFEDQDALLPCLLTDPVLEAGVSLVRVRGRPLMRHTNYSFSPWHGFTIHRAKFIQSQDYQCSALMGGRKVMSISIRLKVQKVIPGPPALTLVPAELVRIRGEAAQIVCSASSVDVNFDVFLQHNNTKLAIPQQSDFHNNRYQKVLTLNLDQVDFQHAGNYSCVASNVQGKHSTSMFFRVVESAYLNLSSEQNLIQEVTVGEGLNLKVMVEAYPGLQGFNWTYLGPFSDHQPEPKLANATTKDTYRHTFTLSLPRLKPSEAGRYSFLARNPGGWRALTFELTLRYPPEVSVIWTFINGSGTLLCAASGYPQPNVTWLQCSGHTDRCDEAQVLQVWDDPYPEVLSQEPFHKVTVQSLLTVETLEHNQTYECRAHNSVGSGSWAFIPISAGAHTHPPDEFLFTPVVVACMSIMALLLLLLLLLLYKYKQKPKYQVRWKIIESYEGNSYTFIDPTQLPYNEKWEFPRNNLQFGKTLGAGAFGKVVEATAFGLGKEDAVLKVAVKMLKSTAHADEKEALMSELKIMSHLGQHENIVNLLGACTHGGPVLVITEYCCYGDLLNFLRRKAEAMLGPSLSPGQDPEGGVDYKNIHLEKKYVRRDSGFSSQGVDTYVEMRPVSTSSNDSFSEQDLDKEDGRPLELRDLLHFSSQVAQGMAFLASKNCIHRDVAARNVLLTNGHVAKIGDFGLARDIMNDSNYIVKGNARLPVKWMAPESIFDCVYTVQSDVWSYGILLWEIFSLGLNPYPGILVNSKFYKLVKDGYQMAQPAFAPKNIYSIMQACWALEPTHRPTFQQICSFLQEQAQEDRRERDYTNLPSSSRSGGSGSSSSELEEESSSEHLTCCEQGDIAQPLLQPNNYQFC
Method: IC50 values of compounds against FMS kinase were determined by LanthaScreen™ Eu Kinase Binding Assay at Invitrogen (Life Technologies Grand Island, N.Y.) where total reaction volume was 10 μL in low-volume 384-well plates (#4511, Corning). Serially diluted compounds (3-fold) were incubated with kinase (1.25 nM) for 10 min, following which a mixture of ATP (10 μM) (#A1852, Sigma, St-Louis, Mo.) and fluorescent-PolyGT substrate (200 nM) (#PV3610, Invitrogen, Life Technologies Grand Island, N.Y.) was added and incubated in dark at room temperature for 1H. After 1H, 10 μL stop solution containing Terbium labeled antibody (4 nM) (#PV3529, Invitrogen, Life Technologies Grand Island, N.Y.) and EDTA (#E5134, Sigma, St-Louis, Mo.) (20 mM) in TR-FRET dilution buffer (#PV3574, Invitrogen, Life Technologies Grand Island, N.Y.) was added. Readings were taken in a Synergy Neo Plate reader (BioTek, Winooski) at single excitation of 340 nm and Dual emission at 495 nm and 520 nm respectively.
The following equations were used for LanthaScreen Eu Kinase Binding Assay Data Analysis. Percent inhibition (100-% activity) was fitted to the “four-parameter logistic model” in XLfit for determination of IC50 values.

CDK4 = target: T3, CDK4 (Homo sapiens, UniProt P11802); assay: In vitro kinase inhibition IC50, luminescence (ADP Glo), retinoblastoma substrate; format: biochemical; conditions: read-out: CDK4/D1 IC50
T3 construct: purchased Invitrogen PR8064A
T3 sequence (P11802 whole entry): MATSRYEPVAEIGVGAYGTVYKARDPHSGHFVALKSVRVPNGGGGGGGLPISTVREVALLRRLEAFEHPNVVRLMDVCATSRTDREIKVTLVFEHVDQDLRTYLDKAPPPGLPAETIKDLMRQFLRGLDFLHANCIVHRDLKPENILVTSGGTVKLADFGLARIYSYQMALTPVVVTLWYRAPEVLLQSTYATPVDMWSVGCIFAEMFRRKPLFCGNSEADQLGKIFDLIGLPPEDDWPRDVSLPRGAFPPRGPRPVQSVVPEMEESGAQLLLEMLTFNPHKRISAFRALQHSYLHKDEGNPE
T3 sequence (P24385 whole entry partner): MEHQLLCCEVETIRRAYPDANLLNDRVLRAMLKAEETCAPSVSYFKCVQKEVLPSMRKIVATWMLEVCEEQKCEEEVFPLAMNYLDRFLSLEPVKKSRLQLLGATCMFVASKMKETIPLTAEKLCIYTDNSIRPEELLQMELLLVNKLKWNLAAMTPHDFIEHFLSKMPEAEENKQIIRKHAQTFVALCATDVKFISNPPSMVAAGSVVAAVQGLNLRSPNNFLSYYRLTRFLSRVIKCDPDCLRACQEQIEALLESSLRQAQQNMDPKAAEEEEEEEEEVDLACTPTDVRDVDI
Method: (§1) IC50 values of compounds against CDK4 and CDK6 were determined by luminescence using retinoblastoma as substrate. Kinase assays were performed in kinase buffer (#PV6135, Invitrogen Life Technologies, Grand Island, N.Y.) where total reaction volume was […] in 96-well half area white plates (#3693, Costar). One microliter of 25×test compounds at specific concentrations (e.g., final concentration range: 0.1 nM-200 nM) was mixed with 10 μL of 2.5×kinase (5 nM, CDK4 #PR8064A and CDK6 #PR8422B, Invitrogen) solution and 14 μL of 4× mixed solution with retinoblastoma (1 μM, #12-439, EMD Millipore, Hayward, Calif.) and ATP (25 μM, #V7038, Promega, Madison, Wis.). The plates were covered and incubated for 2H at room temperature. At the end of incubation, 25 μL of stop solution—ADP Glo reagent (#V7002, Promega) was added. After incubation for 45 min at room temperature, 50 μL of detection reagent (##V7002, Promega) was added. Readings were taken at 15 min and 45 min incubation after detection reagent was added in a Synergy Neo Plate reader (BioTek, Winooski, Vt.) at single excitation of 340 nm and Dual emission at 495 nm and 520 nm respectively. The following equations were used in the CDK4 and CDK6 assay data analysis. Percent inhibition (100-% activity) was fitted to the “four-parameter logistic model” in XLfit for determination of IC50 values.
(§2) Percent conversion of enzyme=100−{(RLUNo Drug−No enzyme*100)/RLUNo drug+Enzyme} Equation 1:
(§3) Percent conversion at each data point=100−{(RLUAverage(Drug+enzyme)*100)!RLUNo drug+Enzyme} Equation 2:
(§4) Percent Inhibition=100*(% Conversioneach data point/% ConversionEnzyme) Equation 3: […]

CDK6 = target: T4, CDK6 (Homo sapiens, UniProt Q00534); assay: as above; format: biochemical; conditions: read-out: CDK6/D1 IC50
T4 construct: purchased Invitrogen PR8422B
T4 sequence (Q00534 whole entry): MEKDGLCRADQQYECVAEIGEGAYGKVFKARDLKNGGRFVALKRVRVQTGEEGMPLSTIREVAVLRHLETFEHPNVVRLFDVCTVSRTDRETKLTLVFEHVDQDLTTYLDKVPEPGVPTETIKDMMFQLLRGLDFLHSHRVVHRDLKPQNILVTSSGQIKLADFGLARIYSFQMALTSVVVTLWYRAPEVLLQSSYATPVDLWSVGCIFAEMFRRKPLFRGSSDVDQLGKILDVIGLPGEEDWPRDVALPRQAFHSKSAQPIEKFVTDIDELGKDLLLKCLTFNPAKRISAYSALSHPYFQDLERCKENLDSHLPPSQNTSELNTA
T4 sequence (P24385 whole entry partner): as the sequence (P24385 whole entry partner) above
Method: as §1, §2, §3, §4

[1] = system: MCF-7 breast adenocarcinoma cells; assay: Cancer cell proliferation assay, single agent (cell viability); format: cell-based; conditions: Homo sapiens, MCF7, Table 4; Rb positive; treatment 144 Hr with medium change at 72 Hr; Cell Titer-Glo or resazurin
Method: (§5) The effects of test compounds were studied in three breast cancer cell lines of different subtype. The cancer cells (Table 3) were harvested during the logarithmic growth period and counted. Cell concentrations were adjusted to the appropriate number with respective medium and 90 μL cell suspensions were added to 96-well plates. After cells were seeded, the plates were shaken gently to distribute cells evenly and incubated at 37° C., 5% CO2 on day 1.
(§6) Cells were treated with test compounds at 7 to 9 concentrations within a desired concentration range (e.g. 1.1 nM-10 μM) on day 2 by series diluting the test compound stock solution (10 mM in DMSO) with culture medium. Treatment duration was 24 Hr for BT-549 cells and 144 Hr (with a medium change at 72 Hr) for MCF-7 and DU4475 cells. Cell viability was assessed by Cell Titer-Glo® as recommended by Promega (Cat. No.: G7572), or by resazurin assay (Sigma Aldrich, Cat. No.: R7017) post treatment.
(§7) Cell viability data were plotted using GraphPad Prism (GraphPad Software, Inc., San Diego, Calif.). In addition, a nonlinear regression model with a sigmoidal dose response and variable slope within GraphPad Prism was used to calculate the IC50 value of individual test compounds.

[2] = system: DU4475 breast carcinoma cells; assay: as above; format: cell-based; conditions: Homo sapiens, DU-4475; Table 4; Rb negative; treatment 144 Hr with medium change at 72 Hr; Cell Titer-Glo or resazurin
Method: as §5, §6, §7

T1 sequence (O00329 whole entry): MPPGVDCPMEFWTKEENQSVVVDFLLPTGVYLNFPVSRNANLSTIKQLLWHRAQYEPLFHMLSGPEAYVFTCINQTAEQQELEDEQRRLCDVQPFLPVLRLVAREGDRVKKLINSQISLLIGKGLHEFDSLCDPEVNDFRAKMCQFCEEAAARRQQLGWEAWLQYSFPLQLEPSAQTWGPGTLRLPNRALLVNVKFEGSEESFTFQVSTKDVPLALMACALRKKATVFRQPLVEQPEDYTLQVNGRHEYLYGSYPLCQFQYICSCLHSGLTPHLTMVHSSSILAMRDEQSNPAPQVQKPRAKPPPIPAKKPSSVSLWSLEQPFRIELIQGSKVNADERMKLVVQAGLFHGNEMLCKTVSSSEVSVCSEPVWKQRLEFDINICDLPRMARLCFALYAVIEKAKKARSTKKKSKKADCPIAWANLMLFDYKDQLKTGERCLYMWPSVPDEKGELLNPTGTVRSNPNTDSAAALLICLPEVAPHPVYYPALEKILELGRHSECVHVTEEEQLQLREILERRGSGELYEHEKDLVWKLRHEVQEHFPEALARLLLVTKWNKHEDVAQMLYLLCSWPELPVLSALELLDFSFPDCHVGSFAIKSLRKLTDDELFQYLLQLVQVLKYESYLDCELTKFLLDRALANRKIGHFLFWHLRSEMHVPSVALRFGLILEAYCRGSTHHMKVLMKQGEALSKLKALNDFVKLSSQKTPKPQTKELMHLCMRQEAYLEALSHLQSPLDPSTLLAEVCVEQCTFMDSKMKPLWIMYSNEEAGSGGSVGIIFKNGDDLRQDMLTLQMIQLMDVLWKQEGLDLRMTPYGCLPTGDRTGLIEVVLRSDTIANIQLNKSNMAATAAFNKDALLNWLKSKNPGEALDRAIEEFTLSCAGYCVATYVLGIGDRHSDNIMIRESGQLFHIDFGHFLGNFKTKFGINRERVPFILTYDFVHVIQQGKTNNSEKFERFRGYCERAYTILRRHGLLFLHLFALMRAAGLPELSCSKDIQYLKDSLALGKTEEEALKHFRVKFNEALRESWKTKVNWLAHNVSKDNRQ
T1 sequence (P27986 whole entry partner): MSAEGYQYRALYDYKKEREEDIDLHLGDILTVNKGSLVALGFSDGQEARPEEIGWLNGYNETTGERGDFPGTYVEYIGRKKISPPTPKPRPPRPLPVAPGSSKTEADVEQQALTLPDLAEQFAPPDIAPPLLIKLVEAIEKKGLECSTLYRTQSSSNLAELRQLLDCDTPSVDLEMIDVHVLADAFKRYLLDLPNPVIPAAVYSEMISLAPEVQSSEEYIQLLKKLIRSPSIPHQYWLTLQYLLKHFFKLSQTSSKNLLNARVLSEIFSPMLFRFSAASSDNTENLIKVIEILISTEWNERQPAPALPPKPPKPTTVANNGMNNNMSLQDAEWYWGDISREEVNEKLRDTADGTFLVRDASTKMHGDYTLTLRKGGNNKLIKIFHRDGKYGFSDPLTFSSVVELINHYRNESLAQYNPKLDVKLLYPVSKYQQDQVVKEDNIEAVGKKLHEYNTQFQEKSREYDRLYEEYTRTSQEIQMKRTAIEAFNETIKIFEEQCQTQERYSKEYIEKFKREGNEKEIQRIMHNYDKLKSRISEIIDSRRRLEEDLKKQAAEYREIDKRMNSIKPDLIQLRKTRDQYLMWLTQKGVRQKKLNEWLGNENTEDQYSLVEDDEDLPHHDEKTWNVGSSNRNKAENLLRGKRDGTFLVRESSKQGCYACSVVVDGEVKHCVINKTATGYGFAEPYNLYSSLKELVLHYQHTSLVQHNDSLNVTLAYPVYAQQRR

SMILES	pIC50 (PI3Kδ kinase)	pIC50 (FMS kinase)	pIC50 (CDK4)	pIC50 (CDK6)	pIC50 [1]	pIC50 [2]
CN1CCN(C(=O)Cn2cc(Nc3ncc4cc(C#N)c(=O)n(C5CCCC5)c4n3)cn2)CC1 [Compound 58]	< 4.52	5.34	< 6.70	–	–	–
N#Cc1cc2ccc(Nc3ccc4c(c3)CCNC4)nc2n(C2CCCC2)c1=O [Compound No. 97, 1-cyclopentyl-2-oxo-7-((1,2,3,4-tetrahydroisoquinolin-6-yl)amino)-1,2-dihydro-1,8-naphthyridine-3-carbonitrile]	< 4.30	–	< 6.70	< 6.70	5.79	5.90
CN1CCC(c2ccc(Nc3ccc4cc(C#N)c(=O)n(C5CCCC5)c4n3)cc2)CC1 [Compound No. 98, 1-cyclopentyl-7-((4-(1-methylpiperidin-4-yl)phenyl)amino)-2-oxo-1,2-dihydro-1,8-naphthyridine-3-carbonitrile]	< 4.30	–	< 6.70	< 6.70	5.76	5.84
CN1CCN(c2ccc(Nc3ccc4cc(C#N)c(=O)n(C5CCCC5)c4n3)cc2)CC1 [Compound No. 96, 1-cyclopentyl-7-((4-(4-methylpiperazin-1-yl)phenyl)amino)-2-oxo-1,2-dihydro-1,8-naphthyridine-3-carbonitrile]	< 4.30	–	< 6.70	6.81	5.61	5.77
CCC(CC)n1c(=O)c(C#N)cc2cnc(Nc3ccc4c(c3)CCNC4)nc21 [Compound No. 86, 7-oxo-8-(pentan-3-yl)-2-((1,2,3,4-tetrahydroisoquinolin-6-yl)amino)-7,8-dihydropyrido[2,3-d]pyrimidine-6-carbonitrile]	6.08	–	6.75	7.60	6.27	5.86
CN1CCN(CCCn2cc(Nc3ncc4cc(C#N)c(=O)n(C5CCCC5)c4n3)cn2)CC1 [Compound 56]	< 4.52	< 5.30	< 6.70	–	–	–

More lines, now with the values ahead:

pIC50 (PI3Kδ kinase)	pIC50 (FMS kinase)	pIC50 (CDK4)	pIC50 (CDK6)	pIC50 [1]	pIC50 [2]	SMILES
6.89	6.74	–	–	–	–	C[C@H]1CC[C@H](n2c(=O)c(C#N)cc3cnc(Nc4cccc(S(N)(=O)=O)c4)nc32)CC1 [Compound No. 2, 3-((6-cyano-8-((1r,4r)-4-methylcyclohexyl)-7-oxo-7,8-dihydropyrido[2,3-d]pyrimidin-2-yl)amino)benzenesulfonamide]
5.43	8.26	–	–	–	–	CN1CCN(S(=O)(=O)c2ccc(Nc3ncc4cc(C#N)c(=O)n(C5CCCC5)c4n3)cc2)CC1 [Compound No. 15, 8-cyclopentyl-2-((4-((4-methylpiperazin-1-yl)sulfonyl)phenyl)amino)-7-oxo-7,8-dihydropyrido[2,3-d]pyrimidine-6-carbonitrile]
6.02	> 9.00	–	–	–	–	N#Cc1cc2cnc(Nc3ccc4c(c3)NC(=O)CC4)nc2n(C2CCCC2)c1=O [Compound No. 9, 8-cyclopentyl-7-oxo-2-((2-oxo-1,2,3,4-tetrahydroquinolin-7-yl)amino)-7,8-dihydropyrido[2,3-d]pyrimidine-6-carbonitrile]
6.01	8.60	–	–	–	–	N#Cc1cc2cnc(Nc3ccc(S(=O)(=O)N4CCC(O)CC4)cc3)nc2n(C2CCCC2)c1=O [Compound No. 14, 8-cyclopentyl-2-((4-((4-hydroxypiperidin-1-yl)sulfonyl)phenyl)amino)-7-oxo-7,8-dihydropyrido[2,3-d]pyrimidine-6-carbonitrile]
5.99	8.62	–	–	–	–	CN(C)CCNC(=O)c1cccc(Nc2ncc3cc(C#N)c(=O)n(C4CCCC4)c3n2)c1 [Compound No. 11, 3-((6-cyano-8-cyclopentyl-7-oxo-7,8-dihydropyrido[2,3-d]pyrimidin-2-yl)amino)-N-(2-(dimethylamino)ethyl)benzamide]
5.56	9.00	–	–	–	–	C[C@H]1CC[C@H](n2c(=O)c(C#N)cc3cnc(Nc4cccc(C(N)=O)c4)nc32)CC1 [Compound No. 4, 3-((6-cyano-8-((1r,4r)-4-methylcyclohexyl)-7-oxo-7,8-dihydropyrido[2,3-d]pyrimidin-2-yl)amino)benzamide]
